Laboratory results reported in the supplement of paper PMC13207355.

Key:
Conditions in all cases: exposure time: 72 h
E57 [1] = patient-derived glioblastoma stem cells of mesenchymal subtype; assay: phenotypic distance (Euclidean, principal components) from DMSO controls (arbitrary units); higher = stronger morphological change
E31 [2] = patient-derived glioblastoma stem cells of proneural subtype; assay: as above
E34 [3] = patient-derived glioblastoma stem cells of proneural subtype; assay: as above
E13 [4] = patient-derived glioblastoma stem cells of classical subtype; assay: as above
E21 [5] = patient-derived glioblastoma stem cells of mesenchymal subtype; assay: as above
FT3469 [6] = normal neural stem cell line; assay: as above
E28 [7] = patient-derived glioblastoma stem cells of classical subtype; assay: as above
E57 [8] = assay: surviving fraction (nuclei count normalised to DMSO); higher = more cells surviving (less toxic)
E31 [9] = assay: as above
E34 [10] = assay: as above
E13 [11] = assay: as above
E21 [12] = assay: as above
FT3469 [13] = assay: as above
E28 [14] = assay: as above
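Wherever phenotypic distance (Euclidean, principal components) from DMSO controls is given: cell Painting imaging in 384-well plates, CellProfiler features reduced to at least 20 principal components, Euclidean distance versus same-plate DMSO vehicle wells (0.1% v/v), median over six images per well.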
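Wherever surviving fraction (nuclei count normalised to DMSO) is given: nuclei counted by high-content imaging of Hoechst-stained cells in laminin-coated 384-well plates, relative to 0.1% DMSO vehicle wells, with staurosporine as cell-death control.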

COc1cc2c(cc1O)CC[C@@H]1[C@@H]2CC[C@]2(C)[C@@H](O)CC[C@@H]12 [2-methoxyestradiol]
Conditions | phenotypic distance | surviving fraction
E13 [4], 4.1 nM | 0.645 | –
E13 [4], 12.3 nM | 0.821 | –
E13 [4], 37 nM | 1.01 | –
E13 [4], 111.1 nM | 1.47 | –
E13 [4], 333.3 nM | 0.958 | –
E13 [4], 1000 nM | 1.4 | –
E13 [4], 3000 nM | 5.03 | –
E13 [11], 4.1 nM | – | 0.992
E13 [11], 12.3 nM | – | 0.961
E13 [11], 37 nM | – | 0.838
E13 [11], 111.1 nM | – | 1.04
E13 [11], 333.3 nM | – | 0.816
E13 [11], 1000 nM | – | 0.777
E13 [11], 3000 nM | – | 0.174
E21 [5], 4.1 nM | 1 | –
E21 [5], 12.3 nM | 1.01 | –
E21 [5], 37 nM | 0.858 | –
E21 [5], 111.1 nM | 1.42 | –
E21 [5], 333.3 nM | 1.01 | –
E21 [5], 1000 nM | 1.82 | –
E21 [5], 3000 nM | 6.05 | –
E21 [12], 4.1 nM | – | 0.888
E21 [12], 12.3 nM | – | 0.932
E21 [12], 37 nM | – | 0.919
E21 [12], 111.1 nM | – | 0.885
E21 [12], 333.3 nM | – | 0.928
E21 [12], 1000 nM | – | 0.803
E21 [12], 3000 nM | – | 0.257
E28 [7], 4.1 nM | 0.862 | –
E28 [7], 12.3 nM | 1.15 | –
E28 [7], 37 nM | 0.941 | –
E28 [7], 111.1 nM | 1.27 | –
E28 [7], 333.3 nM | 0.698 | –
E28 [7], 1000 nM | 1.54 | –
E28 [7], 3000 nM | 3.97 | –
E28 [14], 4.1 nM | – | 1.14
E28 [14], 12.3 nM | – | 0.843
E28 [14], 37 nM | – | 0.86
E28 [14], 111.1 nM | – | 0.687
E28 [14], 333.3 nM | – | 0.862
E28 [14], 1000 nM | – | 0.768
E28 [14], 3000 nM | – | 0.41
E31 [2], 4.1 nM | 0.701 | –
E31 [2], 12.3 nM | 0.672 | –
E31 [2], 37 nM | 0.712 | –
E31 [2], 111.1 nM | 0.758 | –
E31 [2], 333.3 nM | 0.88 | –
E31 [2], 1000 nM | 1.61 | –
E31 [2], 3000 nM | 5.31 | –
E31 [9], 4.1 nM | – | 1.08
E31 [9], 12.3 nM | – | 0.913
E31 [9], 37 nM | – | 0.985
E31 [9], 111.1 nM | – | 0.862
E31 [9], 333.3 nM | – | 0.731
E31 [9], 1000 nM | – | 0.63
E31 [9], 3000 nM | – | 0.194
E34 [3], 4.1 nM | 0.764 | –
E34 [3], 12.3 nM | 2.41 | –
E34 [3], 37 nM | 0.956 | –
E34 [3], 111.1 nM | 0.641 | –
E34 [3], 333.3 nM | 0.508 | –
E34 [3], 1000 nM | 1.21 | –
E34 [3], 3000 nM | 4.96 | –
E34 [10], 4.1 nM | – | 0.925
E34 [10], 12.3 nM | – | 0.876
E34 [10], 37 nM | – | 1.11
E34 [10], 111.1 nM | – | 1.07
E34 [10], 333.3 nM | – | 1.02
E34 [10], 1000 nM | – | 0.876
E34 [10], 3000 nM | – | 0.388
E57 [1], 4.1 nM | 0.835 | –
E57 [1], 12.3 nM | 1.06 | –
E57 [1], 37 nM | 0.97 | –
E57 [1], 111.1 nM | 0.943 | –
E57 [1], 333.3 nM | 0.975 | –
E57 [1], 1000 nM | 2.06 | –
E57 [1], 3000 nM | 7.41 | –
E57 [8], 4.1 nM | – | 1.04
E57 [8], 12.3 nM | – | 1.02
E57 [8], 37 nM | – | 1.09
E57 [8], 111.1 nM | – | 1.06
E57 [8], 333.3 nM | – | 1.03
E57 [8], 1000 nM | – | 0.891
E57 [8], 3000 nM | – | 0.19
FT3469 [6], 4.1 nM | 1.02 | –
FT3469 [6], 12.3 nM | 0.62 | –
FT3469 [6], 37 nM | 0.868 | –
FT3469 [6], 111.1 nM | 0.854 | –
FT3469 [6], 333.3 nM | 0.793 | –
FT3469 [6], 1000 nM | 0.919 | –
FT3469 [6], 3000 nM | 3.47 | –
FT3469 [13], 4.1 nM | – | 0.794
FT3469 [13], 12.3 nM | – | 0.981
FT3469 [13], 37 nM | – | 1
FT3469 [13], 111.1 nM | – | 0.858
FT3469 [13], 333.3 nM | – | 0.846
FT3469 [13], 1000 nM | – | 0.855
FT3469 [13], 3000 nM | – | 0.527

CCCCCC[C@H]1C(=O)O[C@H](C)[C@H](NC(=O)c2cccc(NC=O)c2O)C(=O)O[C@@H](C)[C@@H]1OC(=O)CC(C)C [Antimycin A]
Conditions | phenotypic distance | surviving fraction
E13 [4], 4.1 nM | 2.21 | –
E13 [4], 12.3 nM | 2 | –
E13 [4], 37 nM | 1.93 | –
E13 [4], 111.1 nM | 2.18 | –
E13 [4], 333.3 nM | 2.6 | –
E13 [4], 1000 nM | 2.46 | –
E13 [4], 3000 nM | 3.04 | –
E13 [11], 4.1 nM | – | 0.562
E13 [11], 12.3 nM | – | 0.544
E13 [11], 37 nM | – | 0.546
E13 [11], 111.1 nM | – | 0.571
E13 [11], 333.3 nM | – | 0.512
E13 [11], 1000 nM | – | 0.538
E13 [11], 3000 nM | – | 0.416
E21 [5], 4.1 nM | 3.65 | –
E21 [5], 12.3 nM | 3.44 | –
E21 [5], 37 nM | 4.09 | –
E21 [5], 111.1 nM | 3.93 | –
E21 [5], 333.3 nM | 3.39 | –
E21 [5], 1000 nM | 3.78 | –
E21 [5], 3000 nM | 3.71 | –
E21 [12], 4.1 nM | – | 0.588
E21 [12], 12.3 nM | – | 0.629
E21 [12], 37 nM | – | 0.542
E21 [12], 111.1 nM | – | 0.55
E21 [12], 333.3 nM | – | 0.594
E21 [12], 1000 nM | – | 0.585
E21 [12], 3000 nM | – | 0.494
E28 [7], 4.1 nM | 0.765 | –
E28 [7], 12.3 nM | 1.08 | –
E28 [7], 37 nM | 1.34 | –
E28 [7], 111.1 nM | 1.41 | –
E28 [7], 333.3 nM | 1.38 | –
E28 [7], 1000 nM | 1.86 | –
E28 [7], 3000 nM | 1.87 | –
E28 [14], 4.1 nM | – | 0.8
E28 [14], 12.3 nM | – | 0.561
E28 [14], 37 nM | – | 0.625
E28 [14], 111.1 nM | – | 0.585
E28 [14], 333.3 nM | – | 0.506
E28 [14], 1000 nM | – | 0.527
E28 [14], 3000 nM | – | 0.521
E31 [2], 4.1 nM | 1.51 | –
E31 [2], 12.3 nM | 1.62 | –
E31 [2], 37 nM | 1.68 | –
E31 [2], 111.1 nM | 1.91 | –
E31 [2], 333.3 nM | 2 | –
E31 [2], 1000 nM | 1.59 | –
E31 [2], 3000 nM | 1.73 | –
E31 [9], 4.1 nM | – | 0.793
E31 [9], 12.3 nM | – | 0.864
E31 [9], 37 nM | – | 0.779
E31 [9], 111.1 nM | – | 0.683
E31 [9], 333.3 nM | – | 0.721
E31 [9], 1000 nM | – | 0.599
E31 [9], 3000 nM | – | 0.661
E34 [3], 4.1 nM | 1.81 | –
E34 [3], 12.3 nM | 2.11 | –
E34 [3], 37 nM | 1.7 | –
E34 [3], 111.1 nM | 2.19 | –
E34 [3], 333.3 nM | 2.19 | –
E34 [3], 1000 nM | 2.08 | –
E34 [3], 3000 nM | 1.39 | –
E34 [10], 4.1 nM | – | 0.771
E34 [10], 12.3 nM | – | 0.666
E34 [10], 37 nM | – | 0.745
E34 [10], 111.1 nM | – | 0.619
E34 [10], 333.3 nM | – | 0.717
E34 [10], 1000 nM | – | 0.682
E34 [10], 3000 nM | – | 0.652
E57 [1], 4.1 nM | 2.07 | –
E57 [1], 12.3 nM | 3.56 | –
E57 [1], 37 nM | 4.06 | –
E57 [1], 111.1 nM | 4.75 | –
E57 [1], 333.3 nM | 4.39 | –
E57 [1], 1000 nM | 4.71 | –
E57 [1], 3000 nM | 5.22 | –
E57 [8], 4.1 nM | – | 0.694
E57 [8], 12.3 nM | – | 0.642
E57 [8], 37 nM | – | 0.581
E57 [8], 111.1 nM | – | 0.515
E57 [8], 333.3 nM | – | 0.61
E57 [8], 1000 nM | – | 0.513
E57 [8], 3000 nM | – | 0.466
FT3469 [6], 4.1 nM | 0.791 | –
FT3469 [6], 12.3 nM | 1.47 | –
FT3469 [6], 37 nM | 1.52 | –
FT3469 [6], 111.1 nM | 1.43 | –
FT3469 [6], 333.3 nM | 1.68 | –
FT3469 [6], 1000 nM | 1.44 | –
FT3469 [6], 3000 nM | 1.34 | –
FT3469 [13], 4.1 nM | – | 0.95
FT3469 [13], 12.3 nM | – | 0.895
FT3469 [13], 37 nM | – | 0.872
FT3469 [13], 111.1 nM | – | 0.823
FT3469 [13], 333.3 nM | – | 0.719
FT3469 [13], 1000 nM | – | 0.929
FT3469 [13], 3000 nM | – | 0.659
